One may read the IC50 as the concentration needed to halve the response being measured.

Structures are written as SMILES. Activity calls are given as the source filed them. The rule behind the calls is not given here.

The target of this experiment is Microphthalmia-associated transcription factor (Homo sapiens) (UniProt O75030). Put plainly: MITF inhibitors, potency by titration, dose response, biochemical, AlphaScreen, human (AID 1259371). To be noted: AlphaScreen biochemical MITF assay, signal inhibition. (Bead proximity is the source of the signal in Alpha formats.)
Microphthalmia-associated transcription factor (Homo sapiens), sequence (O75030 whole entry, looked up): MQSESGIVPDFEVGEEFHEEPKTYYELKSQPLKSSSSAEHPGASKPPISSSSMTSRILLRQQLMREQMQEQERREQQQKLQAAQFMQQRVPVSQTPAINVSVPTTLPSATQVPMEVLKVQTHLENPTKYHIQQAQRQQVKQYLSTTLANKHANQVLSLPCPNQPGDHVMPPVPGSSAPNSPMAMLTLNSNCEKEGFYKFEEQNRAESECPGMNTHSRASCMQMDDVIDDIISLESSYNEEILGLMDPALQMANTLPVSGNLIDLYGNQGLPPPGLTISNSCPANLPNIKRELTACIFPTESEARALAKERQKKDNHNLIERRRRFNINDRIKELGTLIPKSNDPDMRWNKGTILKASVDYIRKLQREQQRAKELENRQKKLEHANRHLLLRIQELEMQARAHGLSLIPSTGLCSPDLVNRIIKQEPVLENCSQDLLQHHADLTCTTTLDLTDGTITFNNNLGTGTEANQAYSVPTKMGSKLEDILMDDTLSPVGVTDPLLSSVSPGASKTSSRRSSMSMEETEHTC
Turning to `N#CC1=C(N)n2c(s/c(=C\c3ccco3)c2=O)=C(C#N)C1c1ccco1` (stereo unspecified), the IC50 was 3.85 nM.

Consider `O=c1[nH]c(-c2ccco2)nc2sc3c(c12)CCCC3`, for which the IC50 was 42.3 nM.

As for `COc1cccc(COC(=O)Nc2ccc(-c3cn[nH]c3)cc2N(C)CCN(C)C)c1`, the IC50 entry was “inactive”.

`CN(C)CCNc1nc(C2COc3ccccc3O2)nc2ccc(-c3cn[nH]c3)cc12` (stereo unspecified): the IC50 entry was “inactive”.

Regarding `COC(=O)CSc1nnc(-c2ccco2)n1Cc1ccco1`, the IC50 is 99.3 nM.

`O=C(CCCCC1SCC2NC(=O)NC21)NC1(c2ccc3c(c2)OCO3)CCCC1` (stereo unspecified): the IC50 result was “inactive”.

Turning to `CN1C(=O)[C@H]2CN(C(=O)NC3CCCCC3)CCN2C(=O)[C@@H]1CO`, the IC50 is > 6480 nM (inactive).

As for `O=C(O)CCN(CCC(=O)O)c1ccc(O)cc1`, the IC50 was 138 nM.

Turning to `Cc1ccc(O)c(NC(=S)NC(=O)/C=C/c2ccco2)c1`, the IC50 was > 6480 nM (inactive).

For `O=C(Cn1ncn2cccc2c1=O)N1CCc2ccccc2C1`, the IC50 is > 6480 nM (inactive).

On to `CC(C)[C@H]1NC(=O)[C@H]2CN(C(=O)NC3CCCCC3)CCN2C1=O`, for which the IC50 entry was “inactive”.

With `Cc1ccc2[nH]c(=O)c(=O)[nH]c2c1`, the IC50 was > 12100 nM (inactive).

On to `CC(C)N(C(=O)COC(=O)c1cc(-c2ccco2)nc2ccccc12)C(C)C`, for which the IC50 result was “inactive”.

`Cc1noc(C2CN(C(=O)c3ccc(-n4cccc4)cc3)C2)n1`: the IC50 result is “inactive”.

As to `O=c1cc(/C=C/c2ccc(O)cc2)nc2nn[nH]n12`, the IC50 entry was “inactive”.

In the case of `O=C(NNC(=S)Nc1ccccc1)C(=O)NNC(=S)Nc1ccccc1`, the IC50 result is “inactive”.

Turning to `NC(=O)n1c(CCC(=O)O)nc2sc3c(c2c1=O)CCC3`, the IC50 was 211 nM.

Regarding `N#CC1=c2/c(=C/c3ccco3)c(N)c(C#N)n2C(=O)C(c2ccco2)S1` (stereo unspecified), the IC50 is 28.1 nM.

As for `O=c1[nH]cccc1-c1ccc(Nc2nccc(-c3ccc4nc(C5CC5)[nH]c(=O)c4c3)n2)cc1`, the IC50 entry was “inactive”.

Consider `CC(=O)NCC(c1cccs1)S(=O)(=O)c1ccc(C)cc1` (stereo unspecified), for which the IC50 result is “inactive”.

For the compound `O=C(COC(=O)COc1ccc(Cl)cc1)NCc1ccco1`, the IC50 was > 2400 nM (inactive).

`COC(=O)CCc1cc2c(C)cc(=O)oc2cc1OCc1ccc(C)cc1`: the IC50 was > 6480 nM (inactive).

As to `C=CCc1cc(Cl)ccc1OCCOCCNCCOC`, the IC50 was > 6480 nM (inactive).

Take `CCCCNCCOc1ccccc1OCC`: the IC50 is > 6480 nM (inactive).

For `NC(=O)/C(=C\c1cccc([N+](=O)[O-])c1)NC(=O)c1ccc(Br)cc1`, the IC50 was > 6480 nM (inactive).

Turning to `COC(=O)c1c(NC(=O)c2ccc([N+](=O)[O-])o2)sc(Cc2ccc3c(c2)OCO3)c1C`, the IC50 entry was “inactive”.

Take `C[C@@H](OCc1ccccc1)[C@@H]1NC(=O)[C@H]2CN(C(=O)Nc3cccc(F)c3)CCN2C1=O`: the IC50 result was “inactive”.

Consider `c1cncc(CNc2nc(Nc3ccc(N4CCOCC4)cc3)c3ncn(C4CCCCC4)c3n2)c1`, for which the IC50 was > 4840 nM (inactive).

With `CCn1ccnc1CN1CCN(Cc2cccc(OC)c2)C(CCO)C1` (stereo unspecified), the IC50 was > 6480 nM (inactive).

For `O=C(O)c1cc(N=Cc2ccco2)ccc1O`, the IC50 was 778 nM.

For the compound `CCN1CCN(Cc2coc3ccccc3c2=O)CC1`, the IC50 was > 6480 nM (inactive).

As to `COc1cccc(C(=O)N2CCN(Cc3cccc(Cl)c3)CC2)c1`, the IC50 is > 4800 nM (inactive).

Regarding `Cc1nnc(CNC(=O)c2ccc(-n3cccc3)cc2)o1`, the IC50 entry was “inactive”.

In the case of `O=C(O)C1CC=CCC1C(=O)Nc1nncs1` (stereo unspecified), the IC50 entry was “inactive”.

As for `O=C(O)c1ccc(CNC(=O)c2cocc2C(=O)O)o1`, the IC50 was > 7320 nM (inactive).

As for `CC1=C/C(=N\N=C2\NC(=O)C(CC(=O)Nc3ccc(C(=O)O)cc3)S2)CC(C)(C)C1` (stereo unspecified), the IC50 was 334 nM.

For `NC(=O)c1ccc(-c2cccs2)s1`, the IC50 is > 7320 nM (inactive).

Turning to `CC[C@H](C)[C@@H]1NC(=O)[C@H]2CN(C(=O)NCc3ccccc3)CCN2C1=O`, the IC50 result was “inactive”.

With `N#C/C(=C\c1nn(-c2ccccc2)c(N)c1C#N)c1ccco1`, the IC50 was 386 nM.

As for `CCOc1cc(-c2ccc(I)o2)cc(=O)c2c(C)oc(C)c12`, the IC50 was 2.55 nM.

With `O=C(NCCN1CCOCC1)c1cccc(CN(C(=O)c2nc3ccc(-c4cn[nH]c4)cc3s2)C2CC2)c1`, the IC50 entry is “inactive”.

For `O=C(/C=C/c1ccco1)NCCCCNC(=O)/C=C/c1ccco1`, the IC50 was 180 nM.

Take `CN(C)/C=C/C=C/C(=O)c1cccc(C(=O)/C=C/C=C/N(C)C)c1O`: the IC50 is 303 nM.

As for `Cc1ccccc1/C=C1\N=C(c2cc(C3=N/C(=C/c4ccccc4C)C(=O)O3)cc(C3=N/C(=C/c4ccccc4C)C(=O)O3)c2)OC1=O`, the IC50 result was “inactive”.

As to `C[C@@H](OCc1ccccc1)[C@@H]1NC(=O)[C@H]2CN(C(=O)NC3CCCCC3)CCN2C1=O`, the IC50 result is “inactive”.

With `O=C(Nc1ccc(N2CCOCC2)cc1)c1cccc(Nc2ccncn2)n1`, the IC50 entry is “inactive”.

As for `COC(=O)C1=C(C(=O)OC)C2c3ccccc3C=CN2C(C(=O)OC)=C1C(=O)OC` (stereo unspecified), the IC50 was > 4070 nM (inactive).

For the compound `CC(=C/C(=O)O)/C=C/c1ccoc1`, the half-maximal inhibitory concentration (IC50) was 159 nM.

As for `COC(=O)CN(CCN(CC(=O)O)CC(=O)OC)CC(=O)O`, the IC50 entry was “inactive”.

Regarding `CC(=O)CC1=C(C(=O)O)N2C(=O)C(N)C2SC1` (stereo unspecified), the IC50 is > 6480 nM (inactive).

Regarding `COc1c(O)cc(O)cc1O`, the IC50 result was “inactive”.

For `O=C(Nc1ccc(-c2ccncc2)c(C(F)(F)F)c1)C1COc2ccccc2O1` (stereo unspecified), the IC50 result is “inactive”.

For `O=C(COC(=O)/C=C/c1ccco1)NCc1ccco1`, the IC50 is 393 nM.

Take `O=C(Nc1ccc(Oc2ccccc2)cc1)c1ccnc(-c2cccs2)c1`: the IC50 is > 6710 nM (inactive).

On to `CN(C)c1ccc(NC(=O)CSc2ncccc2C(=O)O)cc1`, for which the IC50 result is “inactive”.

Regarding `COc1cccc(CN2CCC(CNc3ccc(-c4ccncc4)cc3)C2)c1` (stereo unspecified), the IC50 is 285 nM.

On to `CCOC(=O)C1C2NC(=S)N(c3cccc(Cl)c3)C1(C)Oc1c(OC)cccc12` (stereo unspecified), for which the IC50 is > 5090 nM (inactive).

Turning to `CCN(CC)c1ccc(C(c2c(C)[nH][nH]c2=O)c2c(C)[nH][nH]c2=O)cc1`, the IC50 is 286 nM.

Take `N#CC(C#N)=Cc1cccn1-c1ccc(C(=O)O)cc1`: the IC50 result is “inactive”.

With `CCC(C)NCCOc1cccc(Br)c1` (stereo unspecified), the IC50 is > 6480 nM (inactive).

In the case of `Cc1cc(C(=O)O)ccc1-c1ccc(/C=C2/NC(=O)NC2=O)o1`, the IC50 result is “inactive”.

Turning to `Cc1ccn2c(NCC3CCCO3)c(-c3ccc(O)cc3O)nc2c1` (stereo unspecified), the IC50 was 80.9 nM.

As for `Clc1ccc(CN2CCN(Cc3c[nH]c4ccccc34)CC2)cc1`, the IC50 result was “inactive”.

`O=C(O)c1ccccc1-c1ccc(/C=C/[N+](=O)[O-])o1`: the IC50 was 460 nM.

For `CN(C)[C@@H]1C(=O)C(C(=O)NCN2CCCC2)=C(O)[C@@]2(O)C(=O)C3=C(O)c4c(O)cccc4[C@@](C)(O)[C@H]3C[C@@H]12`, the IC50 is 425 nM.

For `O=C(c1cccc(F)c1)N1CCN(Cc2ccncc2)CC1`, the IC50 was > 5660 nM (inactive).
